US12329158B2, “Large-scale methods of uniformly coating packaging surfaces with a volatile antimicrobial to preserve food freshness” (AGROFRESH INC., priority 2013, dated 2025)
Read-outs that look alike come from different tables or passages of the source.

Assays:
Test in all cases: Volatile MIC of Samples 1-4 (Example 19)
Assay type in all cases: cell-based
Botrytis cinerea = settings: 50 µl/disk; for MIC: Botrytis cinerea, read-out: MIC mg/l Botrytis cinerea
Method: A 3-ml volume of full-strength Potato Dextrose Agar (PDA) is added to each well. […] Cat. No. 1001-0155) are placed on the underside of a polyethylene PCR plate sealing film. […] The acetone is permitted to evaporate for 5 minutes. The headspace around the Botrytis cinerea inoculum is then sealed inside the well by the film with the adhering disk containing the fungicide. Plates are inverted to prevent any possibility of the chemical from flaking from the disk and falling onto the inoculated agar.

Penicillium expansum = settings: 50 µl/disk
Alternaria alternata = settings: 50 µl/disk; for MIC: Alternaria alternata, read-out: MIC mg/l Alternaria alternata
Monilinia fructicola = settings: 50 µl/disk
Glomerella cingulata = settings: 50 µl/disk; first test (Table 15)

Fc1ccc2c(c1)COB2OCCOB1OCc2cc(F)ccc21 [Sample 1]
MIC (Botrytis cinerea; first test (Table 15)): < 0.6 mg/L
MIC (Botrytis cinerea; repeat test (Table 16)): 0.6 mg/L
MIC mg/l Penicillium expansum (Penicillium expansum; repeat test (Table 16)): 8.9 mg/L
MIC (Penicillium expansum; Penicillium expansum, first test (Table 15), read-out: MIC mg/l Penicillium expansum): 8.9 mg/L
MIC (Alternaria alternata; first test (Table 15)): 22 mg/L
MIC (Alternaria alternata; repeat test (Table 16)): > 2.2 mg/L
MIC (Monilinia fructicola; Monilinia fructicola, repeat test (Table 16), read-out: MIC mg/l Monilinia fructicola): 2.2 mg/L

c1ccc2c(c1)COB2OCCOB1OCc2ccccc21 [Sample 2]
MIC mg/l Botrytis cinerea (Botrytis cinerea; first test (Table 15)): <0.6 mg/L
MIC mg/l Botrytis cinerea (Botrytis cinerea; repeat test (Table 16)): 2.2 mg/L
MIC mg/l Penicillium expansum (Penicillium expansum; first test (Table 15)): 8.9 mg/L
MIC mg/l Penicillium expansum (Penicillium expansum; repeat test (Table 16)): 8.9 mg/L
MIC mg/l Alternaria alternata (Alternaria alternata; first test (Table 15)): 8.9 mg/L
MIC mg/l Monilinia fructicola (Monilinia fructicola; first test (Table 15)): 35.7 mg/L
MIC mg/l Glomerella cingulata (Glomerella cingulata): 142.9 mg/L

CC(C)(OB1OCc2cc(F)ccc21)C(C)(C)OB1OCc2cc(F)ccc21 [Sample 3]
MIC mg/l Botrytis cinerea (Botrytis cinerea; first test (Table 15)): <0.6 mg/L
MIC mg/l Botrytis cinerea (Botrytis cinerea; repeat test (Table 16)): 1.1 mg/L
MIC mg/l Penicillium expansum (Penicillium expansum; first test (Table 15)): 4.5 mg/L
MIC mg/l Penicillium expansum (Penicillium expansum; repeat test (Table 16)): 8.9 mg/L
MIC mg/l Alternaria alternata (Alternaria alternata; first test (Table 15)): 2.2 mg/L
MIC mg/l Alternaria alternata (Alternaria alternata; repeat test (Table 16)): >2.2 mg/L
MIC mg/l Monilinia fructicola (Monilinia fructicola; repeat test (Table 16)): 1.1 mg/L

CC(COB1OCc2cc(F)ccc21)OB1OCc2cc(F)ccc21 (stereo not shown) [Sample 4]
MIC mg/l Botrytis cinerea (Botrytis cinerea; first test (Table 15)): <0.6 mg/L
MIC mg/l Botrytis cinerea (Botrytis cinerea; repeat test (Table 16)): 0.6 mg/L
MIC mg/l Penicillium expansum (Penicillium expansum; first test (Table 15)): 8.9 mg/L
MIC mg/l Penicillium expansum (Penicillium expansum; repeat test (Table 16)): 8.9 mg/L
MIC mg/l Alternaria alternata (Alternaria alternata; first test (Table 15)): 1.1 mg/L
MIC mg/l Alternaria alternata (Alternaria alternata; repeat test (Table 16)): >2.2 mg/L
MIC mg/l Monilinia fructicola (Monilinia fructicola; repeat test (Table 16)): 1.1 mg/L
